Patent US20150045341A1, “DISUBSTITUTED ARYL AZETIDINE DERIVATIVES AS SPHINGOSINE-1 PHOSPHATE RECEPTORS MODULATORS” (Allergan, Inc., priority 2013, published 2015)

target: T1, human S1P1 receptor (Homo sapiens, UniProt P21453); assay: GTP γ35S binding assay for S1P1 activity; type: biochemical; details: membranes of cells stably expressing the S1P1 receptor, test compounds 0.08 to 5,000 nM, 30 min at 25° C.
T1 construct: expressed in transfected cells; membranes from cells stably expressing the S1P1 receptor
T1 sequence (P21453 whole entry): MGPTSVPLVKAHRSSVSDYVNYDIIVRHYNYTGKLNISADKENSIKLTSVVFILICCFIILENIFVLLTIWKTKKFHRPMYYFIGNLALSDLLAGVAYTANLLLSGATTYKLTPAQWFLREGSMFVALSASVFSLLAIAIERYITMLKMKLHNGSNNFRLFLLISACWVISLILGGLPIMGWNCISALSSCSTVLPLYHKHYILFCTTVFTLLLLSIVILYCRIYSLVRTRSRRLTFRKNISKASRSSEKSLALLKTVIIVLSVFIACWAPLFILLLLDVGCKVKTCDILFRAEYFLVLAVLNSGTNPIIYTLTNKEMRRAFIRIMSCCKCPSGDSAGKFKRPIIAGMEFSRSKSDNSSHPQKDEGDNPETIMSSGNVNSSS
Method: Compounds were synthesized and tested for S1P1 activity using the GTP γ^35S binding assay. These compounds may be assessed for their ability to activate or block activation of the human S1P1 receptor in cells stably expressing the S1P1 receptor.
GTP γ^35S binding was measured in the medium containing (mM) HEPES 25, pH 7.4, MgCl2 10, NaCl 100, dithiothreitol 0.5, digitonin 0.003%, 0.2 nM GTP γ^35S, and 5 μg membrane protein in a volume of 150 μl. Test compounds were included in the concentration range from 0.08 to 5,000 nM unless indicated otherwise. Membranes were incubated with 100 μM 5′-adenylylimidodiphosphate for 30 min, and subsequently with 10 μM GDP for 10 min on ice. Drug solutions and membrane were mixed, and then reactions were initiated by adding GTP γ^35S and continued for 30 min at 25° C. Reaction mixtures were filtered over Whatman GF/B filters under vacuum, and washed three times with 3 mL of ice-cold buffer (HEPES 25, pH7.4, MgCl2 10 and NaCl 100). Filters were dried and mixed with scintillant, and counted for ^35S activity using a β-counter. Agonist-induced GTP γ^35S binding was obtained by subtracting that in the absence of agonist. Binding data were analyzed using a non-linear regression method. In case of antagonist assay, the reaction mixture contained 10 nM […] in the presence of test antagonist at concentrations ranging from 0.08 to 5000 nM.

Row | SMILES | EC50
1 | CCCCC(CCCOc1ccc(CN2CC(C(=O)O)C2)cc1Cl)Cc1ccc(C)c(C)c1 (stereo not drawn) [1-(3-chloro-4-{[4-(3,4-dimethylbenzyl)octyl]oxy}benzyl)azetidine-3-carboxylic acid] | 2.71 nM
2 | CCCC(CCCOc1c(C)cc(CN2CC(C(=O)O)C2)cc1C)Cc1ccc(C)c(C)c1 (stereo not drawn) [1-(4-{[4-(3,4-dimethylbenzyl)heptyl]oxy}-3,5-dimethylbenzyl)azetidine-3-carboxylic acid] | 2.05 nM
3 | CCCCC(CCCOc1c(F)cc(CN2CC(C(=O)O)C2)cc1OC)Cc1ccc(C)c(C)c1 (stereo not drawn) [1-(4-{[4-(3,4-dimethylbenzyl)octyl]oxy}-3-fluoro-5-methoxybenzyl)azetidine-3-carboxylic acid] | 2.91 nM
4 | CCCCC(CCCOc1ccc(CN2CC(C(=O)O)C2)cc1F)Cc1ccc(C)c(C)c1 (stereo not drawn) [1-(4-{[4-(3,4-dimethylbenzyl)octyl]oxy}-3-fluorobenzyl)azetidine-3-carboxylic acid] | 5.42 nM
5 | CCCCCC(CCCOc1ccc(CN2CC(C(=O)O)C2)cc1)Cc1ccc(C)c(C)c1 (stereo not drawn) [Compound 1, 1-(4-{[4-(3,4-Dimethylbenzyl)nonyl]oxy}benzyl)azetidine-3-carboxylic acid] | 6.04 nM
6 | CCCCC(CCCOc1ccc(CN2CC(C(=O)O)C2)cc1)Cc1ccc(C)c(C)c1 (stereo not drawn) [Compound 2, 1-(4-{[4-(3,4-Dimethylbenzyl)octyl]oxy}benzyl)azetidine-3-carboxylic acid] | 1.03 nM
7 | CCCC(CCCOc1ccc(CN2CC(C(=O)O)C2)cc1)Cc1ccc(C)c(C)c1 (stereo not drawn) [Compound 3, 1-(4-{[4-(3,4-Dimethylbenzyl)heptyl]oxy}benzyl)azetidine-3-carboxylic acid] | 6.51 nM
8 | CCC(CCCOc1ccc(CN2CC(C(=O)O)C2)cc1)Cc1ccc(C)c(C)c1 (stereo not drawn) [Compound 4, 1-(4-{[4-(3,4-Dimethylbenzyl)hexyl]oxy}benzyl)azetidine-3-carboxylic acid] | 69.2 nM
9 | CCCCCCC(CCCOc1ccc(CN2CC(C(=O)O)C2)cc1)Cc1ccc(C)c(C)c1 (stereo not drawn) [Compound 5, 1-(4-{[4-(3,4-Dimethylbenzyl)decyl]oxy}benzyl)azetidine-3-carboxylic acid] | 102 nM
10 | CCCCC(CCCOc1c(C)cc(CN2CC(C(=O)O)C2)cc1C)Cc1ccc(C)c(C)c1 (stereo not drawn) [Compound 6, 1-(4-{[4-(3,4-Dimethylbenzyl)octyl]oxy}-3,5-dimethylbenzyl)azetidine-3-carboxylic acid] | 11.7 nM
11 | CCCCC(CCCOc1ccc(CN2CC(C(=O)O)C2)cc1C)Cc1ccc(C)c(C)c1 (stereo not drawn) [Compound 7, 1-(4-{[4-(3,4-Dimethylbenzyl)octyl]oxy}-3-dimethylbenzyl)azetidine-3-carboxylic acid] | 5.8 nM
12 | CCCCC(CCCOc1ccc(CN2CC(C(=O)O)C2)cc1Br)Cc1ccc(C)c(C)c1 (stereo not drawn) [Compound 8, 1-(3-Bromo-4-{[4-(3,4-dimethylbenzyl)octyl]oxy}benzyl)azetidine-3-carboxylic acid] | 6.54 nM
13 | CCCCCC(CCCOc1ccc(CN2CC(C(=O)O)C2)cc1Cl)Cc1ccc(C)c(C)c1 (stereo not drawn) [Compound 13, 1-(3-Chloro-4-{[4-(3,4-dimethylbenzyl)nonyl]oxy}benzyl)azetidine-3-carboxylic acid] | 13.8 nM
14 | CCCC(CCCOc1ccc(CN2CC(C(=O)O)C2)cc1Cl)Cc1ccc(C)c(C)c1 (stereo not drawn) [Compound 14, 1-(3-Chloro-4-{[4-(3,4-dimethylbenzyl)heptyl]oxy}benzyl)azetidine-3-carboxylic acid] | 11.6 nM
15 | CCCC(CCCOc1ccc(CN2CC(C(=O)O)C2)cc1C)Cc1ccc(C)c(C)c1 (stereo not drawn) [Compound 16, 1-(4-{[4-(3,4-Dimethylbenzyl)heptyl]oxy}-3-methylbenzyl)azetidine-3-carboxylic acid] | 21.2 nM
